# In patent US20150202157A1, “COMPOSITIONS AND METHODS FOR ENHANCING NEURONAL PHOSPHORYLATION HOMEOSTASIS, AND MODULATING DYSFUNCTIONAL EXOCYTOSIS AND NEUROTRANSMITTER RELEASE” (Revalesio Corporation, priority 2014, published 2015):
# Test system: squid giant synapse
# Assay: Electron microscopy of presynaptic terminal (synaptic vesicles at active zones)
# Type: cell-based, squid (Loligo paelli)
# Conditions: treated squid following h-tau42 injection
# Description: Immediately following the electrophysiological study the ganglia were removed from the recording chamber, fixed by immersion in glutaraldehyde, postfixed in osmium tetroxide, stained in block with uranium acetate, dehydrated and embedded in resin (Embed 812, EM Sciences). Ultrathin sections were collected on Pioloform (Ted Pella, Redding, Calif.) and carbon-coated single sloth grids, and contrasted with uranyl acetate and lead citrate. Morphometry and quantitative analysis of the synaptic vesicles were performed with the in house program developed with LabVIEW (National Instruments, Ostin Tex.). […] Vesicle density at the synaptic active zones was determined as the number of vesicles per μm^2, on an average area of 0.8 μm^2 per active zone. CCV density was determined within the limits of the presynaptic terminal on an average terminal area of 3.3 μm^2.
# At the end of the electrophysiological recordings the stellate ganglion was immediately removed from the recording chamber and fixed by immersion in glutaraldehyde. […] Morphometry and quantitative analysis of the synaptic vesicles were performed with the image J software (NIH, EUA). […] Synaptic vesicle density and the number of CCV at the synaptic active zones were determined as the number of vesicles per μm2. […]
smiles,measurement,value
O=C(O)/C=C\C(=O)O.OC1CN(CCCOCCc2ccc3sccc3c2)C1 [T817MA],reduction in number of docked vesicles following h-tau42 injection,not seen
